# In patent US8632788B2, “Parenteral formulation for epothilone analogs” (Bristol-Myers Squibb Company, priority 2001, dated 2014):
# What was measured:
# [1] = Cytotoxic classification of the epothilone analogs
# [2] = Physicochemical properties of the epothilone analogs relevant to compounding (solubility, stability in aqueous media, pH, light, wetting)
# From the text: Any one or two of these characteristics might be compensated for in compounding a pharmaceutical formulation for intravenous administration, but the combination of all of them presents a formidable challenge to the pharmaceutical compounding chemist.
# [3] = Degradation of the drug during dissolution in tertiary butanol/water, lyophilization and secondary drying; assay type: physicochemical; details: dissolution at 5° C. in tertiary butanol/water, lyophilization at −16° C. 48 hours, drying at 15° C. under high vacuum 48 hours, light protected
# Protocol: [1S-[1R*,3R*(E),7R*,10S*,11R*,12R*,16S*]]-[…]-8,8,10,12,16-pentamethyl-3-[1-methyl-2-(2-methyl-4-thiazolyl)ethenyl]-4-aza-17-oxabicyclo[14.1.0]heptadecane-5,9-dione, 9.86 g, was wetted/partially dissolved with 600 mL of a 9:1 mixture of tertiary butanol and Water for Injection USP which had been pre-cooled to 5° C. Once the drug powder had become completely wetted, dissolution was completed by the addition of 600 mL of a 1:9 mixture of tertiary butanol and Water for Injection and 766 mL of a 1:1 mixture of tertiary butanol and Water for Injection which likewise had been pre-cooled to 5° C. thereby making the final solution a 1:1 mixture. The dissolution was carried out under protection from light.
# The solution formed above was promptly lyophilized in a Virtis INOTOP lyophilizer at −16° C. under light protectant conditions over a period of 48 hours. The resultant lyophilized product (lyophile) was then further dried at 15° C. under high vacuum for 48 hours. […] The lyophile was packaged under sterile conditions into 30 mL vials, each containing 10 mg of drug and standard excess to allow for vial/needle/syringe loss.
compound,measurement,setting,value
"C/C(=C\c1csc(C)n1)C1C[C@@H]2O[C@]2(C)CCC[C@H](C)[C@H](O)[C@@H](C)C(=O)C(C)(C)[C@@H](O)CC(=O)N1 (relative stereo) [formula II, [1S-[1R*,3R*(E),7R*,10S*,11R*,12R*,16S*]]-7,11-Dihydroxy-8,8,10,12,16-pentamethyl-3-[1-methyl-2-(2-methyl-4-thiazolyl)ethenyl]-4-aza-7-oxabicyclo[14.1.0]heptadecane-5,9-dione]",cytotoxic class,[1],Class D
same,light sensitivity,[2],light sensitive
same,wetting characteristics,[2],exceptionally poor
same,solubility in aqueous media,[2]; aqueous media,very low solubility
same,degradation in contact with aqueous media,[2]; in contact with aqueous media,rapidly degrade
same,sensitivity to low pH,[2]; in solution,sensitive to low pH
same,degradation of the drug,[3],No detectable degradation
